Assay results taken from paper PMC10897476, “Pyridylpiperazine efflux pump inhibitor boosts in vivo antibiotic efficacy against K. pneumoniae” (EMBO Molecular Medicine, 2023).

What was measured:
E. coli BW25113 = experiment: PyrPip boosting of pyridomycin activity in E. coli (resazurin reduction); assay type: cell-based, Escherichia coli; details: for EC90: read-out: PyrPip antibiotic boosting activity EC90
Excerpt: With the aim of developing a PyrPip for in vivo efficacy studies in mice, it was important to optimise the metabolic stability of these efflux pump inhibitors to guarantee sufficient exposure in mice needed for antibiotic boosting. […] To identify metabolically stabilised PyrPips while maintaining AcrB inhibition, it was therefore decided to explore modifications to the quinoline core as well as the introduction of substituents at position 6 of the quinoline ring.

K. pneumoniae AcrB^V448E = experiment: MIC of antibiotics with and without EPI (REMA), AcrB V448E mutant; assay type: cell-based, Klebsiella pneumoniae; details: K. pneumoniae-AcrB^V448E, Table 2
Method: (§1) MIC experiments were carried out according to the CLSI guidelines (CLSI [2023]). Overnight cultures were diluted to an OD600 = 0.001 in CAMHB followed by addition of efflux pump inhibitors (EPIs) at a final concentration of 100 µM. […] Plates were incubated at 37 °C for up to 20 h. Bacterial viability was evaluated using the resazurin microtitre assay (REMA) and measured by fluorescence using a Tecan Spaert multimode plate reader (Ex: 530 nm Em: 590 nm). MICs were defined as the concentration that prevented 90% of resazurin turnover compared to the non-treated bacteria.
(§2) Mutations in acrB or ramR identified in the BDM88855.HCl (1’) resistant mutant (a.k.a., KPJC11) were introduced individually into K. pneumoniae ATCC 43816 chromosome by allelic exchange (Cianfanelli et al, [2020]). Briefly, 1-kb PCR products centred around each point mutation were generated by amplifying acrB with primers RH1251 ([…][…]) and RH1252 ([…][…]) or ramR with primers RH1249 ([…][…]) and RH1250 ([…][…]) from KPJC11 genomic DNA. PCR fragments were cloned into pFOK (Cianfanelli et al, [2020]) using NEB-building kit ([New England Biolabs]) to generate pEP1533 and pEP1534. Correct plasmids were confirmed by sequencing and introduced into K. pneumoniae ATCC43816 WT via conjugation with the MFDpir+ E. coli donor strain. Exconjugants were selected on kanamycin (50 mg/L) plates at 37 °C and plasmid chromosomal integration was checked by PCR. […] The next day, cultures were diluted and plated onto LB agar. Isolated colonies were then patched onto LB plates with or without kanamycin (50 mg/L) and Km^S candidates were evaluated for correct allelic exchange via acrB or ramR sequencing and then WGS to confirm no additional mutations were introduced.

[1] = Microsomal stability in mouse liver microsomes; assay type: in vitro ADME; details: for microsomal CLint at 1 μM / half-life at 1 μM: female; for microsomal CLint at 1 μM: CD-1, pH 7.4, read-out: Microsomal stability CLint (intrinsic clearance); for half-life at 1 μM: CD-1, pH 7.4, read-out: Microsomal stability t1/2
Method: To determine compound microsomal stability, liver microsomes from female mice (CD-1, Corning) were used. All incubations were performed in duplicate in a shaking water bath at 37 °C. The incubation mixtures contained 1 μM compound with 1% MeOH used as a vehicle, mouse liver microsomes (0.3 mg of microsomal protein per mL), 5 mM MgCl2, 1 mM NADP, 5 mM glucose 6-phosphate, 0.4 U/mL glucose 6-phosphate dehydrogenase, and 50 mM potassium phosphate buffer (pH 7.4) in a final volume of 0.5 mL. Propranolol, known as a high hepatic clearance drug in rodents, was used as a quality-control compound. Controls (t0 and tfinal) were performed in the same conditions but without NADP. The reaction was initiated by the addition of the compound at 1 µM final. Aliquots were removed at 5, 10, 20, 30, and 40 min and the reaction was stopped by adding four volumes of ice-cold MeCN or MeOH containing an internal standard. The samples were centrifuged for 10 min at 12,000 rpm at 4 °C and the supernatants were transferred in matrix tubes for LC-MS/MS analysis. Each compound was quantified by converting the corresponding analyte/internal standard peak area ratios to percentage drug remaining, using the initial ratio values in control incubations as 100%.
Intrinsic clearance (CLint) is expressed as μL/min/mg proteins.

[2] = tested on: K. pneumoniae RamR^mut (K124*stop); experiment: MIC of antibiotics with and without EPI (REMA), RamR mutant; assay type: cell-based, Klebsiella pneumoniae; details: K. pneumoniae-RamR^mut, Table 2
Method: as §1, §2

[3] = E. coli BW25113 in the presence of 8 μg/mL pyridomycin, resazurin reduction, mean ± SEM

| Structure (SMILES) | PyrPip antibiotic boosting activity EC90 (E. coli BW25113; [3]) | susceptibility of the strain to antibiotic boosting by the EPI, in words (K. pneumoniae AcrB^V448E) | Microsomal stability CLint (intrinsic clearance) [1] | Microsomal stability t1/2 [1] | EPI mediated antibiotic boosting, in words [2] | EC90 (E. coli BW25113; [3]) | microsomal CLint at 1 μM [1] | half-life at 1 μM [1] | improvement of potency (EC90) (E. coli BW25113; compared to analogue 5) |
| --- | --- | --- | --- | --- | --- | --- | --- | --- | --- |
| Clc1cc2ccccc2nc1N1CCNCC1 [compound 1] | 3.6 ± 0.5 µM | resistant | 59 μL/min/mg proteins | 24 min | maintained |  |  |  |  |
| Clc1nc2ccccc2nc1N1CCNCC1 [compound 3] |  |  |  |  |  | 3.9 ± 1.6 µM | 111 µL/min/mg | 15 min |  |
| Clc1cc2cc(N3CCCCC3)ccc2nc1N1CCNCC1 [compound 7] |  |  |  |  |  | 13 ± 4 µM | 223 µL/min/mg | 6 min |  |
| NCC(=O)Nc1ccc2nc(N3CCNCC3)c(Cl)cc2c1 [compound 10] |  |  |  |  |  | 3.9 µM | 2 µL/min/mg | > 40 min |  |
| N[C@@H]1CCN(c2ccc3nc(N4CCNCC4)c(Cl)cc3c2)C1 [compound 12] |  |  |  |  |  | 1.3 ± 0.4 µM | 303 µL/min/mg | 2.6 min | 3 fold |
| Clc1cc2cc(N3CCOCC3)ccc2nc1N1CCNCC1 [compound 6] |  |  |  |  |  | 104 ± 28 µM | 103 µL/min/mg | 11 min |  |
| NCCNc1ccc2nc(N3CCNCC3)c(Cl)cc2c1 [compound 9] |  |  |  |  |  | 3.9 µM | 47 µL/min/mg | 40 min |  |
